Data: patent US20080249006A1, “Pharmaceutical Preparation for the Treatment of Shock” (FIBREX MEDICAL RESEARCH & DEVELOPMENT GESMBH, priority 2004, published 2008)
Blank lines part the entries; values can stand above or below the substance they belong to.

Key:
[1] = biological target: T1, recombinant human VE-cadherin FC fusion protein (Homo sapiens, UniProt P33151); test: ELISA: binding of FLAG-tagged peptide to coated VE-cadherin
T1 construct: Fc (immunoglobulin Fc fusion partner); purchased R&D Systems, Minneapolis
Excerpt: (§1) We have developed a modified ELISA working with the same principles described by others, but the purpose of the herein described ELISA is not to quantify fibrin degradation products, but to search for proteins, peptides or compounds which interfere with the binding of the Bbeta15-42 sequence and the VE-cadherin. […] Into this system one can introduce any other additional substance and measure if this substance inhibits VE-cadherin/Bbeta15-42 binding.
(§2) In detail, 96 well protein immobilizer plates (Exiqon, Vedbaek, D K) were coated with recombinant human VE-cadherin FC fusion protein (8 nM/ml; R&D Systems, Minneapolis) in PBS and were left overnight at 4° C. Plates were then washed and incubated with peptide Bβ15-42 ([…]) tagged with a FLAG-sequence (DYKDDDDK) at the C-terminus of the peptide or with a FLAG-tagged random peptide ([…]) at a concentration of 0-80 μMol. After washing, bound FLAG-tagged peptide was detected by incubation with a peroxidase-labelled anti-FLAG antibody (Sigma, St. Louis, USA) and chromogenic substrate. Optical density was determined by an ELISA plate reader set at a wavelength of 450 nm. Data represent the mean of three independent experiments, each performed in triplicates.

[2] = in vivo, ischemia/reperfusion; cited from earlier work
endothelial surfaces = details: in vitro; cited from earlier work
VE-cadherin = biological target: T2, VE-cadherin (Homo sapiens, UniProt P33151); test: Competition ELISA: inhibition of FLAG-tagged Bbeta15-42 binding to VE-cadherin; details: for % inhibition of 15-42FLAG-binding to VE-cadherin mean ± SD: FLAG-tagged Bbeta15-42 12 μM
T2 construct: Fc (immunoglobulin Fc fusion partner); purchased R&D Systems, Minneapolis
Excerpt: as §1, §2
In a next step, we analyzed whether this ELISA can be used to screen for other peptides/compounds to compete with the binding of the Bβ15-42 sequence to VE-cadherin.
VE-cadherin was coated to the plastic surface at a concentration of 8 nM. Then indicated peptides were added at concentrations of 200 μM, NDSK or NDSK-II were added at indicated concentrations. Detection of binding of the FLAG-tagged Bbeta15-42 (12 μM) was performed as described above.

[3] = test system: Gram-negative shock, Lipopolysaccharide from E. coli, serotype 0.127:B8; test: Gram-negative shock (LPS-induced multiple organ failure) in rats; assay type: in vivo, Wistar rats; design: Glucose / Amylase / ALT / AST / Creatinine / Urea / heart rate (mean): unit not given here; details: for mean number of fibrin thrombi within vessels: end of the experiment, acidic fuchsin-orange G stain
Description: Male Wistar rats weighing 230-280 g were housed in the Tierversuchsanlage (University of Düisseldorf) and fed on a standard diet with water ad libitum. All procedures were carried out in accordance with the AAALAC guidelines and Guide for the Care and Use of Laboratory Animals (Department of Health and Human Services, National Institutes of Health, Publication No. 86-23). In addition, all experiments have been approved by an ethical and research board of the University of Düisseldorf and the county. As previously described (Zacharowski et al. Crit. Care Med 2000, Zacharowski et al. Crit. Care Med 2001; 29:1599-1608), rats were anaesthetized with sodium thiopentone (120 mg/kg i.p.) and anesthesia was maintained with supplementary doses of sodium thiopentone as required.
The trachea was cannulated to facilitate respiration and rectal temperature was maintained at 37° C. with a homoeothermic blanket. […] The right jugular vein was cannulated for the administration of drugs. The bladder was also cannulated to facilitate urine flow and to prevent the possibility of the development of post-renal failure. All animals received a total fluid replacement of 1.0 ml/kg/h (0.9% sodium chloride, saline, as an i.v. infusion into the jugular vein) throughout the experiment. Upon completion of the surgical procedure, cardiovascular parameters were allowed to stabilize for 15 min and constantly recorded over 6 h. In this model of LPS-induced multiple organ failure, a period of 6 h is essential to achieve a significant rise in the serum levels of AST and ALT, while a significant rise in the serum levels of urea and creatinine can already be observed after 2 h.
Three groups were studied: Rats were subjected to sham operation: (sham). Rats were subjected to Gram-negative shock. Lipopolysaccharide from E. coli, serotype 0.127:B8 (6 mg/kg i.v.) was given over 5 min i.v., 1 h later, animals received saline (2.4 ml/kg): (LPS+saline). Rats were subjected to Gram-negative shock. Lipopolysaccharide from E. coli, serotype 0.127:B8 (6 mg/kg i.v.) was given over 5 min i.v., animals received Bβ15-42 (2.4 mg/kg): (LPS+Bβ15-42).
Six hours after the induction of Gram-negative shock, blood was collected from the catheter placed in the right carotid artery. The blood sample was centrifuged (1610×g for 3 min at room temperature) to separate plasma. The following marker enzymes were measured in the plasma as biochemical indicators of multiple organ injury/dysfunction:
Liver injury was assessed by measuring the rise in plasma levels of alanine aminotransferase (ALT, a specific marker for hepatic parenchymal injury) and aspartate aminotransferase (AST, a non-specific marker for hepatic injury).
Plasma levels of glucose and amylase were measured as indirect markers of pancreatic function and injury.
In addition, arterial pO2 was measured as indirect marker of lung function/injury. Laboratory values
Organ (lung, liver, heart and kidney) biopsies of all groups studied were taken at the end of the experiment. The biopsies were fixed in buffered formaldehyde solution (4% in phosphate buffered saline) at room temperature and sent to Vienna. […] In sham treated animals no fibrin thrombi were present.

[4] = test system: Dengue virus type 2 (DEN-2), strain P23085; test: Treatment of dengue virus infected mice; assay type: in vivo, BALB/c mice; details: for IL-1 / IL-6 / TNF: serum
endothelium = details: cited from earlier work
[5] = blocking reagent 200 μM, VE-cadherin 8 nM
[6] = plasma, 6 h after induction of Gram-negative shock, Bβ15-42 2.4 mg/kg
[7] = DEN-2 1 LD50 i.p., 4800 μg/kg i.p. twice per day, day 3 to day 8 post infection, p < 0.05 between groups

T2 sequence (P33151 with tags, fused parts or gaps limits assumed): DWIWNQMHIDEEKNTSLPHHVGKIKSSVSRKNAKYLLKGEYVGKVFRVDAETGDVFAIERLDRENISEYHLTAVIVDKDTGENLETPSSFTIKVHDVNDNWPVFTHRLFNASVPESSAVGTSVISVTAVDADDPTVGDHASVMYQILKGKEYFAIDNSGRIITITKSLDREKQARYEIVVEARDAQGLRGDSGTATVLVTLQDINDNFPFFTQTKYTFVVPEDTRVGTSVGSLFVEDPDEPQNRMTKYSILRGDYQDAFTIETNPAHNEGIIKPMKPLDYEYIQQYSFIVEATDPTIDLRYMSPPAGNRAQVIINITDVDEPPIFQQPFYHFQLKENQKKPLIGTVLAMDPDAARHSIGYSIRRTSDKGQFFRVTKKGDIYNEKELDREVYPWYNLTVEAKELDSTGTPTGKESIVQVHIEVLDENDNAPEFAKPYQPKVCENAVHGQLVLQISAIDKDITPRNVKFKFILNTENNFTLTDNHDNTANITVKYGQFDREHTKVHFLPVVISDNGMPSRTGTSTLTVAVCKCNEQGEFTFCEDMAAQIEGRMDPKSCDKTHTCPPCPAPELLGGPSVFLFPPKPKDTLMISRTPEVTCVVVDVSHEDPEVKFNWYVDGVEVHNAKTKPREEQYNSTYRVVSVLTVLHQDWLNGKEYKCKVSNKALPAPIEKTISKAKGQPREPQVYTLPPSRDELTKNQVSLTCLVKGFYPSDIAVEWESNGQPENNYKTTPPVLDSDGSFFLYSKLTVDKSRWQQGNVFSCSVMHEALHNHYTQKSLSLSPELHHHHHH
T1 sequence (P33151 with tags, fused parts or gaps limits assumed): as above

Binding to VE-cadherin, optical density at 450 nm (mean) ([1]; FLAG-tagged peptide 0 μM): 0 | Binding to VE-cadherin, optical density at 450 nm (mean) ([1]; FLAG-tagged peptide 0.23 μM): 0.01 | Binding to VE-cadherin, optical density at 450 nm (mean) ([1]; FLAG-tagged peptide 0.7 μM): 0.02 | Binding to VE-cadherin, optical density at 450 nm (mean) ([1]; FLAG-tagged peptide 2.3 μM): 0.08 | Binding to VE-cadherin, optical density at 450 nm (mean) ([1]; FLAG-tagged peptide 7 μM): 0.33 | Binding to VE-cadherin, optical density at 450 nm (mean) ([1]; FLAG-tagged peptide 14 μM): 0.92 | Binding to VE-cadherin, optical density at 450 nm (mean) ([1]; FLAG-tagged peptide 21 μM): 1.3 | Binding to VE-cadherin, optical density at 450 nm (mean) ([1]; FLAG-tagged peptide 35 μM): 1.5 | Binding to VE-cadherin, optical density at 450 nm (mean) ([1]; FLAG-tagged peptide 46 μM): 1.93 | Binding to VE-cadherin, optical density at 450 nm (mean) ([1]; FLAG-tagged peptide 70 μM): 2.1
Substance: 15-42 FLAG: peptide Bβ15-42 (GHRPLDKKREEAPSLRPAPPPISGGGYR) tagged with a FLAG-sequence (DYKDDDDK) at the C-terminus (GHRPLDKKREEAPSLRPAPPPISGGGYRDYKDDDDK)

Substance: GHRPLDKKREEAPSLRPAPPPISGGGYR [Bβ15-42, peptide matching amino acids 15-42 of the Bbeta chain of human fibrin]
Myocardial infarct sizes (in words) [2]: reduces myocardial infarct sizes | Myocardial inflammation (in words) [2]: prevents myocardial inflammation | Binding of fibrin fragments to endothelial surfaces (in words) (endothelial surfaces): blocks binding of fibrin fragments to endothelial surfaces | Inhibition of binding of flag-tagged peptide Bβ15-42 to VE-cadherin (in words) (VE-cadherin): completely inhibited | % inhibition of 15-42FLAG-binding to VE-cadherin mean ± SD (VE-cadherin; [5]): 100 ± 10% | Survival ([3]; LPS 6 mg/kg i.v. plus Bβ15-42 2.4 mg/kg, n = 20 in each group, p < 0.05): 88% | heart rate (mean) ([3]; LPS + Bβ15-42, time 0 h): 436.9 | mean arterial pressure (mean) ([3]; LPS + Bβ15-42, time 0 h): 128.9 | heart rate (mean) ([3]; LPS + Bβ15-42, time 1 h): 484.8 | mean arterial pressure (mean) ([3]; LPS + Bβ15-42, time 1 h): 83.7 | heart rate (mean) ([3]; LPS + Bβ15-42, time 2 h): 484.1 | mean arterial pressure (mean) ([3]; LPS + Bβ15-42, time 2 h): 102.3 | heart rate (mean) ([3]; LPS + Bβ15-42, time 3 h): 509.8 | mean arterial pressure (mean) ([3]; LPS + Bβ15-42, time 3 h): 103.2 | heart rate (mean) ([3]; LPS + Bβ15-42, time 4 h): 516.7 | mean arterial pressure (mean) ([3]; LPS + Bβ15-42, time 4 h): 101.2 | heart rate (mean) ([3]; LPS + Bβ15-42, time 5 h): 533.7 | mean arterial pressure (mean) ([3]; LPS + Bβ15-42, time 5 h): 97.1 | heart rate (mean) ([3]; LPS + Bβ15-42, time 6 h): 541.6 | mean arterial pressure (mean) ([3]; LPS + Bβ15-42, time 6 h): 107.7 | Fibrin thrombi in sections stained for fibrin deposits, controls versus treated (in words) ([3]; acidic fuchsin-orange G, p<0.05): significantly elevated numbers of fibrin thrombi in controls receiving LPS alone as compared with animals treated with LPS plus Bβ15-42 | pO2 ([3]; arterial, 6 h after induction of Gram-negative shock, Bβ15-42 2.4 mg/kg): 98.7 | Standard H&E-stained organ sections (lung, liver, heart, kidney), comparison of groups ([3]; biopsies at the end of the experiment): no differences | mean number of fibrin thrombi within vessels ([3]; heart): 5 + 2 | mean number of fibrin thrombi within vessels ([3]; kidney): 2 + 9 | mean number of fibrin thrombi within vessels ([3]; liver): 78 + 37 | mean number of fibrin thrombi within vessels ([3]; lung): 1 + 0 | ALT [3, 6]: 261.9 | AST [3, 6]: 529.0 | Amylase [3, 6]: 1945.1 | Creatinine [3, 6]: 0.6 | Glucose [3, 6]: 45.8 | Urea [3, 6]: 107.8 | mean time to death ([4]; DEN-2 1 LD50 i.p., 4800 μg/kg i.p. twice per day, day 3 to day 8 post infection): All mice survived | Mortality (%) [4, 7]: 0% | Survival (%) [4, 7]: 100% | viremia ([4]; day 2): 1.2 ± 0.2 1 g PFU/ml | viremia ([4]; day 3^b): 2.2 ± 0.2 1 g PFU/ml | hematokrit ([4]; day 3 after challenge): 15% | viremia ([4]; day 4): 4.2 ± 0.2 1 g PFU/ml | viremia ([4]; day 5): 5.6 ± 0.4 1 g PFU/ml | hematokrit ([4]; day 5 after challenge): 33% | viremia ([4]; day 6): 6.0 ± 0.4 1 g PFU/ml | viremia ([4]; day 7): 5.9 ± 0.4 1 g PFU/ml | hematokrit ([4]; day 7 after challenge): 43% | viremia ([4]; day 28): 0 1 g PFU/ml | viremia ([4]; first line of the table, day number not given): 0 1 g PFU/ml | IL-1 ([4]; day 3 after challenge): 32 pg/mL | IL-6 ([4]; day 3 after challenge): 140 pg/mL | TNF ([4]; day 3 after challenge): 32 pg/mL | IL-1 ([4]; day 5 after challenge): 29 pg/mL | IL-6 ([4]; day 5 after challenge): 110 pg/mL | TNF ([4]; day 5 after challenge): 65 pg/mL | IL-1 ([4]; day 7 after challenge): 28 pg/mL | IL-6 ([4]; day 7 after challenge): 100 pg/mL | TNF ([4]; day 7 after challenge): 45 pg/mL | Inflammation in vitro (in words) (endothelium): blocks inflammation in vitro | Binding to VE-cadherin (in words) ([1]; FLAG-tagged peptide 0-80 μMol): bound to VE-cadherin in a concentration-dependent manner

% inhibition of 15-42FLAG-binding to VE-cadherin mean ± SD (VE-cadherin; blocking reagent 12 μM): 7 ± 2% | % inhibition of 15-42FLAG-binding to VE-cadherin mean ± SD (VE-cadherin; [5]): 65 ± 12%
Substance: peptide 15-18 (4mer): shorter peptide, amino acids 15-18 of the fibrin Bβ chain

% inhibition of 15-42FLAG-binding to VE-cadherin mean ± SD (VE-cadherin; blocking reagent 12 μM): 6 ± 1% | % inhibition of 15-42FLAG-binding to VE-cadherin mean ± SD (VE-cadherin; [5]): 64 ± 10%
Substance: peptide 15-26 (12mer): shorter peptide, amino acids 15-26 of the fibrin Bβ chain

% inhibition of 15-42FLAG-binding to VE-cadherin mean ± SD (VE-cadherin; blocking reagent 12 μM): 6 ± 3% | % inhibition of 15-42FLAG-binding to VE-cadherin mean ± SD (VE-cadherin; [5]): 61 ± 13%
Substance: peptide 15-30 (16mer): shorter peptide, amino acids 15-30 of the fibrin Bβ chain

% inhibition of 15-42FLAG-binding to VE-cadherin mean ± SD (VE-cadherin; blocking reagent 12 μM): 7 ± 1% | % inhibition of 15-42FLAG-binding to VE-cadherin mean ± SD (VE-cadherin; [5]): 67 ± 17%
Substance: peptide 15-34 (20mer): shorter peptide, amino acids 15-34 of the fibrin Bβ chain

% inhibition of 15-42FLAG-binding to VE-cadherin mean ± SD (VE-cadherin; blocking reagent 12 μM): 7 ± 2% | % inhibition of 15-42FLAG-binding to VE-cadherin mean ± SD (VE-cadherin; [5]): 17 ± 19%
Substance: peptide 15-37 (24mer): shorter peptide, amino acids 15-37 of the fibrin Bβ chain

% inhibition of 15-42FLAG-binding to VE-cadherin mean ± SD (VE-cadherin; blocking reagent 12 μM): 5 ± 2% | % inhibition of 15-42FLAG-binding to VE-cadherin mean ± SD (VE-cadherin; [5]): 55 ± 13%
Substance: peptide 16-42 (27mer): shorter peptide, amino acids 16-42 of the fibrin Bβ chain
